For assay [1], the target named is T1, RNA-binding protein pos-1 (Caenorhabditis elegans, UniProt G5EF15).
T1 sequence (G5EF15 whole entry): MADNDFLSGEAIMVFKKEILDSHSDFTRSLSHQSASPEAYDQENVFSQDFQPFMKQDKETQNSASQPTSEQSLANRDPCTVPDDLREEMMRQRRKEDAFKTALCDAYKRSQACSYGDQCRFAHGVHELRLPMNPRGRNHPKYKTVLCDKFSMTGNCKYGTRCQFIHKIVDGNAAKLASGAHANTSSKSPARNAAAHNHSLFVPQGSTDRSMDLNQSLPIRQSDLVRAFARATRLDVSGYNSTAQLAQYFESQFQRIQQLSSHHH
Kind of assay: inhibitors of POS-1/mex-3 RNA binding, dose response, biochemical, fluorescence polarization (AID 1964).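 Note: purified POS-1 fused to maltose binding protein made in E. coli; potency of compounds blocking POS-1 binding to fluorescent RNA.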

Assay [2] concerns the target T2, Zinc finger protein mex-5 (Caenorhabditis elegans, UniProt Q9XUB2).
T2 sequence (Q9XUB2 whole entry): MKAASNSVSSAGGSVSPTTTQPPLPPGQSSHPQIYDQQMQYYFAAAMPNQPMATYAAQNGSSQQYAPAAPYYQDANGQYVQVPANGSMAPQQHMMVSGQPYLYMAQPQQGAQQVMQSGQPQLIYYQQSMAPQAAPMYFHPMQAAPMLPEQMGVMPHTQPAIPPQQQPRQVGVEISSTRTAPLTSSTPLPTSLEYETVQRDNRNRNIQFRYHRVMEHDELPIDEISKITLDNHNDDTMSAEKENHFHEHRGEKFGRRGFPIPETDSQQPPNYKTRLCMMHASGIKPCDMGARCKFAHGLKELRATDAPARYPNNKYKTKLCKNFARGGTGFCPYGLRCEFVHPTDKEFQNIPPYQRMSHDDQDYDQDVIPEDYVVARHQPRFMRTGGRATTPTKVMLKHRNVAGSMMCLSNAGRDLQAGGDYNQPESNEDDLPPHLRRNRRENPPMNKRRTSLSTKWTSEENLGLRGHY
Kind of assay: MEX-5/TCR-2 RNA interaction inhibitors, dose response, biochemical, C. elegans, fluorescence polarization (AID 1960).

Assay [3] concerns the target T3, Heat shock factor protein 1 (Mus musculus, UniProt P38532).
T3 sequence (P38532 whole entry): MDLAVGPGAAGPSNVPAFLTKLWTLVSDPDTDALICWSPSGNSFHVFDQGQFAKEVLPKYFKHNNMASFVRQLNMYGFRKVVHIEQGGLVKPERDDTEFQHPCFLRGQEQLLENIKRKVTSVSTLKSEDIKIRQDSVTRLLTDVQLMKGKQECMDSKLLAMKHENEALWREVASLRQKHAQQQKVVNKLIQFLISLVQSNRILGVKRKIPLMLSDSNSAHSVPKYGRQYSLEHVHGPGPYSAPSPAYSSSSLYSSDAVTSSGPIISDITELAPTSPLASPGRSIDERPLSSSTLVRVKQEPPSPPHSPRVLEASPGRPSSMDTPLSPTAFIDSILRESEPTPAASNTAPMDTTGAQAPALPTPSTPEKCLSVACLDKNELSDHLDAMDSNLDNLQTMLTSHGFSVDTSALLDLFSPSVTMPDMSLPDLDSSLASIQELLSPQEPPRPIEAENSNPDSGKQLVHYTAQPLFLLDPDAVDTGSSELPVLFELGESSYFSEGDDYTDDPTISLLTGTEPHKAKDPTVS
Description: HSF1 potentiators in luciferase reporter cells, confirmation, cell-based, NIH3T3, luminescence, dose retest (AID 435004).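 Note: stress induced by proteasome inhibitor MG132 added 30 min after compound; luciferase reporter driven by HSF1 response element in NIH3T3 cells; actives raise luminescence as potentiators of the MG132 stress response.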 Format: functional. (Reporter assays use an easily measured gene product as a stand-in for the process of interest.)

The next assay has as its system Vero. Kind of assay: cells. Format: functional. Conditions: Chlorocebus sabaeus.
The nature of assay [4]: inhibitors of intracellular T. cruzi replication, confirmation, NIH3T3 host cells, beta-gal luminescence (AID 2044).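 Note: intracellular parasites grown in NIH/3T3 mouse fibroblasts as host cells; luminescent beta-galactosidase reporter signal from transgenic T. cruzi replicating inside host cells; inhibitors lower the luminescence signal.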 Format: functional, cell-based.
Assay [5] can be described thus: cytotoxicity toward NIH3T3 fibroblasts, dose response, counter-screen, cell-based, ATP luminescence, mouse fibroblasts (AID 2010).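 Note: cells exposed to compound for about 90 hours before reading.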 Format: functional. In general terms: The purpose of a counterscreen is to sort out artefacts and off-target activity.
Assay [6] concerns the target T4, DNA repair protein RAD52 homolog (Homo sapiens, UniProt P43351).
T4 sequence (P43351 whole entry): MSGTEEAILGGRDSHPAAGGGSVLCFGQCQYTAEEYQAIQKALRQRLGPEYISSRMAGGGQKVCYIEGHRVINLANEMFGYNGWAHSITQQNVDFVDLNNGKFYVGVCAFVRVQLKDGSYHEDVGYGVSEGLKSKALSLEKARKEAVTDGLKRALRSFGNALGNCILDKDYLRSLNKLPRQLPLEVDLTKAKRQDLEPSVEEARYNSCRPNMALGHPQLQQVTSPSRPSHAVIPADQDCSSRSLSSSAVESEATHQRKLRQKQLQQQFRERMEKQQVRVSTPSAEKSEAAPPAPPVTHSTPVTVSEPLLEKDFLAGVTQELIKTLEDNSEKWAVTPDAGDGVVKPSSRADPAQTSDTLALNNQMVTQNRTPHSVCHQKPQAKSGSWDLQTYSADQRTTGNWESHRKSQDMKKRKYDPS
Format: functional, biochemical.

Assay [7] is described as follows: cells. Format: functional, cell-based.
A short description of assay [8]: cells. Format: functional, cell-based. This is another data set of the same source.
Assay [9] addresses T3, Heat shock factor protein 1. Description: inhibition of MG132-induced HSE-luciferase signal, confirmation, cell-based, NIH3T3, luminescence, dose retest (AID 2382).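 Note: NIH3T3 fibroblasts with HSF1-driven luciferase reporter stressed by proteasome inhibitor MG132; luminescence from HSF1-driven luciferase expression after 8 hours of MG132 stress.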 Format: functional.
Assay [10] addresses T5, Polyadenylate-binding protein 1 (Homo sapiens, UniProt P11940). Kind of assay: PABP1 MLLE–PAM2 interaction inhibitors, dose response, miRNA deadenylation inhibitor project, biochemical, fluorescence polarization, Cy5-PAM2 peptide, secondary (AID 602260). Format: functional. As to conditions: read-out: IC50_Mean. Background: In fluorescence polarisation assays a small probe gives low polarisation when free and higher when bound to something large.

The target of assay [11] is T5, Polyadenylate-binding protein 1. Kind of assay: PABP1 MLLE–PAM2 binding inhibitor potency, dose response, biochemical, fluorescence polarization, FITC-PAM2 peptide (AID 602259). Format: functional. As to conditions: read-out: IC50_Mean.
Assay [12] in a line: growth suppression of PTEN-null colon cells, dose response, cell-based, HCT116 PTEN knockout (AID 1047).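 Note: HCT116 colon tumor cells with PTEN knocked out; cells exposed to compound for 60 hours before readout; potency for loss of cell viability measured by luminescence.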 Format: functional.
Assay [13] can be described thus: growth suppression of beta-catenin-knockout colon cells, dose response, cell-based, HCT116, human colon tumor (AID 1045).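 Note: HCT116 colon tumor cells with beta catenin knocked out; cells exposed to compound for 60 hours.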 Format: functional.
The test system of assay [14] is Streptococcus sp. 'group A'. Kind of assay: growth inhibition of control SK(-) GAS strain, dose response, counter-screen for streptokinase expression inhibitor project, luminescence, kanamycin, BacTiterGlo, confirmation (AID 1900). Format: functional, organism-based.
A further assay deals with Streptococcus. Kind of assay: Group A Streptococcus viability loss, dose response, counter-screen for streptokinase expression inhibitor project, luminescence, BacTiterGlo (AID 1915).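 Note: potency for reduction of bacterial viability or growth.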 Format: functional, organism-based.
Assay [15] can be described thus: THP-1 cell cytotoxicity, dose response, cytotoxicity control for non-replicating M. tuberculosis project (AID 489025). Format: functional.
The nature of assay [16]: cells. Format: functional.
Assay [17] deals with Induced myeloid leukemia cell differentiation protein Mcl-1 (Homo sapiens, UniProt Q07820). Format: functional.
Assay [18] addresses T6, High affinity choline transporter 1 (Homo sapiens, UniProt Q9GZV3).
T6 sequence (Q9GZV3 whole entry): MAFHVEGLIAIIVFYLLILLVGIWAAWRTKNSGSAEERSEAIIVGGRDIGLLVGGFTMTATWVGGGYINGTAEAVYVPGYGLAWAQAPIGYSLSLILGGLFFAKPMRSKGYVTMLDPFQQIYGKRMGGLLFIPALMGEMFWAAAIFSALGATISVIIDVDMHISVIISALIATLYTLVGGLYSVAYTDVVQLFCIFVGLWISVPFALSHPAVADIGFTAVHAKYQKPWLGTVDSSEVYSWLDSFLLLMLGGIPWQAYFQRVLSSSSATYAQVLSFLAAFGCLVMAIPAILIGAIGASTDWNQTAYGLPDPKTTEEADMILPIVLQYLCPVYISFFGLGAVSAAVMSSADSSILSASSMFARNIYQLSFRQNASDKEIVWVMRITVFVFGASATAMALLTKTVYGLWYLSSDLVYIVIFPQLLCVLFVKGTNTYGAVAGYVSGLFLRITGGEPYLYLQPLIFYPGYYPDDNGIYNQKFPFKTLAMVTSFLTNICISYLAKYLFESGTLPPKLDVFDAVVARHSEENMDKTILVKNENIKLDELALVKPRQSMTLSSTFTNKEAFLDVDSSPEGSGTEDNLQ
Kind of assay: CHT inhibitors, dose response, cell-based, 5-point CRC, membrane potential dye (AID 504840). Format: functional.

Assay [19] addresses Luciferin 4-monooxygenase (Photinus pyralis, UniProt P08659). Kind of assay: firefly luciferase enzyme inhibitors, dose response, biochemical, luminescence (AID 1891).
Assay [20] can be described thus: Luminescence Cell-Based Dose Confirmation HTS to Identify Inhibitors of Platelet Dense Granule Release. [Related pubchem assays: 1663 (Primary HTS), 1678 (Summary of Project)]. Format: functional.
Assay [21] addresses T7, Carboxy-terminal domain RNA polymerase II polypeptide A small phosphatase 1 (Homo sapiens, UniProt Q9GZU7).
T7 sequence (Q9GZU7 whole entry): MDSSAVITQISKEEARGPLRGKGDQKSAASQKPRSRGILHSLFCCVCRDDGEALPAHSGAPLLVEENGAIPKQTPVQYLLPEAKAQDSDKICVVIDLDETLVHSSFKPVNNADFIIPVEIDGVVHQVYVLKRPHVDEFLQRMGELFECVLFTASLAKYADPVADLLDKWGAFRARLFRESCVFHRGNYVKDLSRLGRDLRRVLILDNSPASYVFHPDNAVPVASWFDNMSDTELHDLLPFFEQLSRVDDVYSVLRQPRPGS
Kind of assay: inhibitors of CTDSP1, concentration-response testing, biochemical assay, absorbance-based, actives from ultra-high-throughput screening (AID 540297). Format: functional.

Active and inactive are the calls of the source.

T5 sequence (P11940 whole entry): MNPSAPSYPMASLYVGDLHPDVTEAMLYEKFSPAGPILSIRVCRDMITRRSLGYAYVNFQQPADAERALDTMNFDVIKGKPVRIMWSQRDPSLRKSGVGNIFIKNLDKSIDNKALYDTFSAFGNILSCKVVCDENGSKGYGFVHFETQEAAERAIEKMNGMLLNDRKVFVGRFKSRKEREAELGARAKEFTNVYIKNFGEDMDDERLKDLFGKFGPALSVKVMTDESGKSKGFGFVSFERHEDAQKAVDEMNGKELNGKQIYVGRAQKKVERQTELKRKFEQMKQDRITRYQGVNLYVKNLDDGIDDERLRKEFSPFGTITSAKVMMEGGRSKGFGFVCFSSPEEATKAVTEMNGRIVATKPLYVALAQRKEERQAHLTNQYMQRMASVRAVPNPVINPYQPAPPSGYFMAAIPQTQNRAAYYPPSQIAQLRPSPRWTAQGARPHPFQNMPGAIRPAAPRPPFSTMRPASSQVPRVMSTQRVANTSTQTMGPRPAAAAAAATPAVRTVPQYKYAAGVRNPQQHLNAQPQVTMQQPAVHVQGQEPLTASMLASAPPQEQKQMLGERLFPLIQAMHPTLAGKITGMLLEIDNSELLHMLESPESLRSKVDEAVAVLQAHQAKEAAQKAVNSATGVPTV
Induced myeloid leukemia cell differentiation protein Mcl-1, sequence (Q07820 whole entry): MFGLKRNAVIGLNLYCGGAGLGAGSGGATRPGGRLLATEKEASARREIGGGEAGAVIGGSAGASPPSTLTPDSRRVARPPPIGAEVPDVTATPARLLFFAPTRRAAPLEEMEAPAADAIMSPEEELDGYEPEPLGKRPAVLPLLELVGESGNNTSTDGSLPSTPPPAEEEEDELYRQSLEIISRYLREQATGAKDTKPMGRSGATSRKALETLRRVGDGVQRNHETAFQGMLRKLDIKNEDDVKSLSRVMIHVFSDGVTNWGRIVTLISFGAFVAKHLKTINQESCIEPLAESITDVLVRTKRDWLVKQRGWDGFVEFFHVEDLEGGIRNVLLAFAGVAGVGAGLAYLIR
Luciferin 4-monooxygenase, sequence (P08659 whole entry): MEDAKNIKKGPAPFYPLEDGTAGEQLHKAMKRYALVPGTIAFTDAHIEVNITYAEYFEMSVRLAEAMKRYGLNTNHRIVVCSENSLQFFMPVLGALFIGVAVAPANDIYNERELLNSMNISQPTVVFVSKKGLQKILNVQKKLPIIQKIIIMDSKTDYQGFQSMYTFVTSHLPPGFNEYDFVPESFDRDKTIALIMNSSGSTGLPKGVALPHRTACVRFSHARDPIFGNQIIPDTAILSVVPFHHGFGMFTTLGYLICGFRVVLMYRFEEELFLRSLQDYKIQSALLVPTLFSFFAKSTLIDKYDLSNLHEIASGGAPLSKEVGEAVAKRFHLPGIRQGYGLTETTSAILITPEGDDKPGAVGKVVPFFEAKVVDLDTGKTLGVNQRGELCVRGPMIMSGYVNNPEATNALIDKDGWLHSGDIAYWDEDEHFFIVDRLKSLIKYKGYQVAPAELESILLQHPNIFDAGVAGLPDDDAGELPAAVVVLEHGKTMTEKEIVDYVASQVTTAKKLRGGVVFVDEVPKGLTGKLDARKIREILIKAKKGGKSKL

Turning to `Cc1ccc(C(=O)Oc2oc(-c3ccccc3)nc2/C=N/c2ccc(N(C)C)cc2)cc1`, the EC50 in [1] is > 300 µM (not active); in [2] it was > 300 µM (inconclusive); in assay [3] it was 6.88 µM (active).

For `Cc1ccc(S(=O)(=O)Nc2ccccc2F)cc1C(=O)NNC(=O)c1csc(N2CCOCC2)n1`, the EC50 is 30.8 µM (active) in assay [1] and 23.3 µM (active) in [2].

With `CC(=O)c1ccccc1-c1csc2ncnc(Sc3nnnn3C)c12`, the CC50 in the assay on Vero is > 25 µM (active).

With `COc1cc(NC(=O)CSc2nnc3ccc(-c4ccncc4)nn23)cc(OC)c1`, the EC50 in assay [1] and in assay [2] was > 300 µM (not active) each time.

For the compound `CCOC(=O)c1ccccc1NC(=O)c1cn(-c2ccc(OC)cc2)c(=O)c2ccccc12`, in the assay on Vero, the CC50 is > 25 µM (active).

Regarding `COc1cc2c(cc1OC)CN(c1nc(CN3CCCC3)nc3sc(C)c(C)c13)CC2`, the EC50 was 0.278 µM (active) in [4] and > 60 µM (not active) in [5]. The AC50 in assay [6] is 11.5 µM (active).

For the compound `CCOc1ccc(NC(=O)COc2ccccc2)c([N+](=O)[O-])c1`, the EC50 in [1] was > 300 µM (not active); in “cells [7]”, > 350 µM (not active); in assay [2], > 300 µM (not active); in the assay “cells [8]”, 11.9 µM (active).

For `CC(C)c1nc(SCC(=O)c2ccc(F)cc2)c2ccccc2n1`, the EC50 in assay [9] is recorded as > 195 µM (not active). Also, the IC50 in [10] and in assay [11] was > 66 µM (inactive) throughout.

Take `Cc1c(N=C2Nc3cccc4cccc2c34)c(=O)n(-c2ccccc2)n1C`: the EC50 in assay [1] and in assay [2] was > 300 µM (not active) in each case.

Regarding `Cc1cccc(OCC(O)Cn2c(=N)n(CCN3CCCCC3)c3ccccc32)c1` (centres undefined), the EC50 in [12] is 7.39 µM (active); in assay [13] it was 6.6 µM (active). For the same compound, the CC50 with Vero is 15 µM (active).

As to `Cc1cc2cc(CNC(=O)COc3ccccc3)ccc2n1C`, the IC50 in assay [10] and in assay [11] was > 66 µM (inactive) throughout.

Consider `CCOC1(OCC)N=C(N)C2(C#N)C(c3ccc(NC(C)=O)cc3)C12C#N` (centres undefined), for which the EC50 in assay [1] was 155 µM (active); in [2] it was 79.4 µM (active).

As to `CN1CCN(S(=O)(=O)c2ccc(NC(=S)NC(=O)C(C)(C)C)cc2)CC1`, the IC50 in [10] and in assay [11] was > 66 µM (inactive) throughout.

In the case of `COc1ccc(C(=O)NNC(=S)NC(=O)c2ccc(F)cc2)cc1Br`, the EC50 in assay [14] is 0.378 µM (active); in the assay with Streptococcus, 1.73 µM (active). For the same compound, the cytotoxic concentration (CC50) in the assay on Vero is > 25 µM (active).

In the case of `COc1ccc(C(=O)NCC(=O)N/N=C/c2ccc([N+](=O)[O-])o2)cc1OC`, in assay [15], the CC50 was 24 µM (active). Also, the IC50 in the assay “cells [16]” is 4.08 µM (active).

Consider `CN(C)c1ccc(NC(=O)CCCc2ccccc2)cc1`, for which, in [17], the IC50 is recorded as 4.98 µM (not active).

With `CSc1nc2c(=S)[nH]c(=S)[nH]c2s1`, the IC50 in assay [10] and in assay [11] was > 66 µM (inactive) each time.

On to `O=C(O)CCN1C(=O)/C(=C\c2ccc(-c3nc4ccccc4s3)o2)SC1=S`, for which the IC50 in [17] is 1.53 µM (active).

As to `Cc1ccc(NC(S)=Nc2ccc3[nH]c(O)nc3c2)cc1C`, the IC50 was 14.5 µM (active) in assay [18], > 66 µM (inactive) in assay [10] and > 66 µM (inactive) in assay [11].

Turning to `COc1ccc(C(=O)NC2(C(F)(F)F)C(=O)N(Cc3ccco3)C3=C2C(=O)CC(C)(C)C3)cc1OC` (centres undefined), the EC50 in [1] and in assay [2] was > 300 µM (not active) each time.

On to `Cc1cccc(/N=C/c2sc3ccccc3c2O)n1`, for which the EC50 in assay [19] was 1.02 µM (active); in [20], 22.1 µM (active). Also, the IC50 in assay [17] was 1.57 µM (active).

Regarding `O=C(COc1ccc2ccccc2c1)NNC(=O)c1ccc([N+](=O)[O-])cc1`, the IC50 in [17] was 7.07 µM (active); in [21], 6.67 µM (active).

The EC50 is the midpoint of the concentration-response curve. A word on the CC50: it is the concentration at which the toxic effect on the cells reaches its halfway point. By AC50 is commonly meant the midpoint of the concentration-response curve, whichever way the signal moves.
